Measured values taken from ChEMBL document CHEMBL6083281, “Development of a Fluorescence Probe for High-Throughput Screening of Allosteric Inhibitors Targeting TRAP1” (J Med Chem, 2024).
pIC50, pKd: −log10 of the molar value.

Columns and labels:
[1] = test system: HeLa; assay: Cytotoxicity against human HeLa cells assessed as reduction in cell viability incubated for 24 hrs by MTT assay
[2] = test system: CWR22R; assay: Cytotoxicity against human 22Rv1 cells assessed as reduction in cell viability incubated for 24 hrs by MTT assay; conditions: 22Rv1, 24 h
[3] = target: T1, Heat shock protein 75 kDa, mitochondrial (Homo sapiens, UniProt Q12931)
T1 sequence (Q12931 whole entry): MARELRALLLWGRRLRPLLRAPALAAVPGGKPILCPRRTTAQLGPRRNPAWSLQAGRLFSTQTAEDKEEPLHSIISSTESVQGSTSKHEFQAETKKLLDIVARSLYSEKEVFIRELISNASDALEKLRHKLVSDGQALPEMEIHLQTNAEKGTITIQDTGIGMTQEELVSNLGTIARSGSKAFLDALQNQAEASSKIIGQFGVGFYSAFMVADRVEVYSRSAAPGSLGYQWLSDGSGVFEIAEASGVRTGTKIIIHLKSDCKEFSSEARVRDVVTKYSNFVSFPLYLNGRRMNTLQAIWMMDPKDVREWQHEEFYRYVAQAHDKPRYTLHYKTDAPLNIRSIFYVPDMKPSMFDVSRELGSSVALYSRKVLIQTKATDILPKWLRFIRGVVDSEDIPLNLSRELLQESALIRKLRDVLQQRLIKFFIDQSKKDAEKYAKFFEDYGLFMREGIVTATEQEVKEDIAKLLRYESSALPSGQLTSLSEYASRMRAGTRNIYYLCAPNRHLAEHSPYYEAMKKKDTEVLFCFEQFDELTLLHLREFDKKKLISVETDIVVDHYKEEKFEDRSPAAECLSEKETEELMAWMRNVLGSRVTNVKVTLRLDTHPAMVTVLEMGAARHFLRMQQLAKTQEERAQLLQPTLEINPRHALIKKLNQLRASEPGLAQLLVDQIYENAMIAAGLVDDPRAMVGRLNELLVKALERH

[4] = target: T1, Heat shock protein 75 kDa, mitochondrial; assay: Binding affinity to TRAP1 (unknown origin) assessed as dissociation constant incubated for 15 mins by MST analysis
[5] = target: Heat shock protein 75 kDa, mitochondrial (Homo sapiens, UniProt Q12931, F353A/F531A)
Chain of Heat shock protein 75 kDa, mitochondrial (Homo sapiens, UniProt Q12931, F353A/F531A) (Q12931 60-704 F353A/F531A limits assumed): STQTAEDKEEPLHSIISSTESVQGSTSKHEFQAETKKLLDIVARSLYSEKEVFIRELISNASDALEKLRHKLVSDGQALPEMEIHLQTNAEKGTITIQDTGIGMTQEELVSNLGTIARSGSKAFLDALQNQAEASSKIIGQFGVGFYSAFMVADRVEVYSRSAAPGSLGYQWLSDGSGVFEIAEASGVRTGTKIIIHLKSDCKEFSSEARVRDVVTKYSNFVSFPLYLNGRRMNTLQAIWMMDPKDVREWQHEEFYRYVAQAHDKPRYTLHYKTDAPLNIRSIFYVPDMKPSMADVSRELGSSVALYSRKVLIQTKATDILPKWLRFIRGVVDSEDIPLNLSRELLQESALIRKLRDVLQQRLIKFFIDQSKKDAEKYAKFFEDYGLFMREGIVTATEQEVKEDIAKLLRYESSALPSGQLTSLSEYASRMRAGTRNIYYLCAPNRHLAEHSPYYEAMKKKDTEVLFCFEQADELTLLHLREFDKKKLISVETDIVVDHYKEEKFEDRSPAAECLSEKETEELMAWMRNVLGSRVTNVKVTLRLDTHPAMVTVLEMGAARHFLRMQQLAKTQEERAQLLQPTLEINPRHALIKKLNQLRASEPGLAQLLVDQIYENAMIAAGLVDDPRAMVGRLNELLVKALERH

[6] = target: T1, Heat shock protein 75 kDa, mitochondrial; remark: listed apart in the source
Description: Binding affinity to N-terminal 6Hits-tagged/TEV-fused human wildtype TRAP1 extracted from Escherichia coli BL21 (DE3) cells assessed as dissociation constant incubated for 2 hrs by fluorescence polarization assay

[7] = target: T1, Heat shock protein 75 kDa, mitochondrial; assay: Binding affinity to TRAP1 (unknown origin) assessed as dissociation constant by MST analysis

pIC50 [3] | pKd [4] | pKd [5] | pKd [6] | pKd [7] | Structure (SMILES) | pIC50 [1] | pIC50 [2]
5.05 |  |  |  |  | O=C(CCCCCCCCC[P+](c1ccccc1)(c1ccccc1)c1ccccc1)Oc1ccc(-c2cc(=S)ss2)cc1 | < 4.70 | < 4.70
5.42 |  |  |  |  | COc1cc(C)c(CCCCCCCCCC[P+](c2ccccc2)(c2ccccc2)c2ccccc2)cc1OC | 5.49 | 6.30
< 4.70 |  |  |  |  | O=C(C/C(=C/c1ccccc1)C[P+](c1ccccc1)(c1ccccc1)c1ccccc1)C/C(=C\c1ccccc1)C[P+](c1ccccc1)(c1ccccc1)c1ccccc1 | < 4.70 | 4.76
5.07 |  |  |  |  | Cc1c(C)c2c(c(C)c1O)CCC(C)(CCCCCCCCCC[P+](c1ccccc1)(c1ccccc1)c1ccccc1)O2 (stereo not given) | 5.84 | 6.74
< 4.70 |  |  |  |  | COc1cc(COC(=O)CCCCC[P+](c2ccccc2)(c2ccccc2)c2ccccc2)c(OC)c2c1OCO2 | < 4.70 | 4.74
5.00 |  |  |  |  | c1ccc([P+](Cc2c3ccccc3c(C[P+](c3ccccc3)(c3ccccc3)c3ccccc3)c3ccccc23)(c2ccccc2)c2ccccc2)cc1 | < 4.70 | < 4.70
< 4.70 |  |  |  |  | Cc1c(C)c2c(c(C)c1O)CCC(C)(CC[P+](c1ccccc1)(c1ccccc1)c1ccccc1)O2 (stereo not given) | < 4.70 | 4.76
< 4.70 |  |  |  |  | O=C(c1ccccc1)C(O)(CCC[P+](c1ccccc1)(c1ccccc1)c1ccccc1)c1ccccc1 (stereo not given) | 4.75 | 5.46
5.60 | 5.36 | 4.55 |  |  | CN(C)CCOc1ccc(/C(=C(/CCCCCCCCCC[P+](c2ccccc2)(c2ccccc2)c2ccccc2)c2ccccc2)c2ccccc2)cc1 | 6.03 | 6.21
 |  |  | 5.82 |  | CN(CCCCCC[P+](c1ccccc1)(c1ccccc1)c1ccccc1)C(=O)c1ccccc1C1=c2cc3c4c(c2Oc2c1cc1c5c2CCCN5CCC1)CCC[N+]=4CCC3 |  | 
5.42 |  |  |  |  | COc1c(C)c(CCCCCCCCCC[P+](c2ccccc2)(c2ccccc2)c2ccccc2)c(OC)c(OC)c1OC | 5.78 | 6.41
5.32 |  |  |  |  | CC1(C)CC(C(=O)OCCCCCCCCCC[P+](c2ccccc2)(c2ccccc2)c2ccccc2)C(C)(C)N1O (stereo not given) | 5.29 | 6.22
 |  |  | 6.09 |  | CCN(CC)c1ccc2c(-c3ccccc3C(=O)N(C)CCCCCC[P+](c3ccccc3)(c3ccccc3)c3ccccc3)c3ccc(=[N+](CC)CC)cc-3oc2c1 |  | 
< 4.70 |  |  |  |  | COC1=C(OC)C(=O)C(C[P+](c2ccccc2)(c2ccccc2)c2ccccc2)=C(C)C1=O | < 4.70 | 4.79
 |  |  | 5.66 |  | CCN(CC)c1ccc2c(-c3ccccc3C(=O)N(C)CCCCCCCC[P+](c3ccccc3)(c3ccccc3)c3ccccc3)c3ccc(=[N+](CC)CC)cc-3oc2c1 |  | 
< 4.70 |  |  |  |  | CC1(C)CC(C(=O)OCC[P+](c2ccccc2)(c2ccccc2)c2ccccc2)C(C)(C)N1O (stereo not given) | < 4.70 | < 4.70
5.39 |  |  |  |  | COc1c(Br)c(C)c(CCCCCCCCCC[P+](c2ccccc2)(c2ccccc2)c2ccccc2)c(OC)c1OC | 5.79 | 6.43
4.85 |  |  |  |  | O=C(CCCCCCCCCC[P+](c1ccccc1)(c1ccccc1)c1ccccc1)Nc1nccs1 | 5.20 | 5.65
5.09 |  |  |  |  | CC(C)(C)[Si](C)(C)O[C@H]1CC[C@]2(C)[C@H]1[C@H]2CCC[P+](c1ccccc1)(c1ccccc1)c1ccccc1 | 5.78 | 6.07
 | 6.43 | 5.28 | 6.57 |  | CN(CCCCCCCC[P+](c1ccccc1)(c1ccccc1)c1ccccc1)C(=O)c1ccccc1C1=c2cc3c4c(c2Oc2c1cc1c5c2CCCN5CCC1)CCC[N+]=4CCC3 |  | 
5.28 |  |  |  | 5.18 | COC1=C(OC)C(=O)C(CCCCCCCCCC[P+](c2ccccc2)(c2ccccc2)c2ccccc2)=C(C)C1=O [MITOQUINONE CATION] | 5.37 | 6.22
